Experimental data reported in patent publication US11034735B2, “Hybrid peptide, set of hybrid peptides, composition, uses of the hybrid peptide, method for inducing an immune response and kits” (priority 2017, dated 2021).

system: serum of BALB/c mice; assay: Dot-ELISA, synthetic peptides with serum of immunized BALB/c mice; format: in vivo; set-up: key to Peptide Reactivity, Mice serum inoculated with isolated peptides 1 / Peptide Reactivity, Mice serum inoculated with isolated peptides 2 / Peptide Reactivity, Mice serum inoculated with isolated peptides 3 / Peptide Reactivity, Mice serum inoculated with pool / Peptide Reactivity, Mice serum inoculated with Saline (Negative Control) / Reaction with pool of peptides, Mouse 1 serum / Reaction with pool of peptides, Mouse 2 serum / Reaction with pool of peptides, Mouse 3 serum: — = Did not react; X = Reacted; conditions: Dot-ELISA; peptide as antigen; mice inoculated with pool of all 8 hybrid peptides
Method: (§1) The immunogenicity of each peptide was checked immunizing BALB/c mice, approximately six weeks old, with […] of protein (Machado et al., 1994). The mice were divided into groups of three animals each. The groups were: P28, P41, P42, P44, P50, P51, P53, P54, Pool (mice inoculated with a pool of peptides, in the case with all 8 hybrid peptides) and negative control group. For inoculations, the peptides were emulsified in Freund's complete adjuvant (Sigma) and inoculated intramuscularly in the quadriceps. Two further immunizations, on the 14th and 28th day after inoculation, were performed using incomplete Freund's adjuvant (Sigma). Each inoculation was carried out using 10 μg/mL of each peptide. Negative control mice were inoculated with sterile saline in place of the peptides and also emulsified in adjuvant. Blood samples were collected by intracardiac puncture on the 10th day after the last immunization and the sera obtained were stored at −20° C. until evaluated by Dot-ELISA and Western-blotting assays.
(§2) Synthetic peptides were used as antigen in the Dot-ELISA technique to verify their ability to react with specific antibodies present in the serum of BALB/c mice, as well as in calf serum, all immunized. The technique was performed as described by Machado et al. (1994), with minor modifications. Briefly, small nitrocellulose discs were cut using a paper punch and each disc arranged in a flat bottom 24-well culture plate well. 4 μg/mL of each synthetic peptide alone, as well as the peptide pool, were deposited on each disc. The discs were dried at room temperature and then blocked for 12 hours at room temperature with […] TBS buffer (0.1 M Tris, 0.1 M NaCl and 0.5% Tween 20; TBS-Tween 20), plus 5% skim milk powder. Test sera were diluted 1:25 (mice and calf) in TBS-Tween 20 containing 5% skim milk powder and incubated for 120 minutes at room temperature and under constant stirring. Then the discs were subjected to two washes with TBS-Tween 20 plus 5% skim milk powder and one wash with TBS-Tween 20 (5 min interval between each wash). To each mouse serum disc was added the alkaline phosphate-coupled anti-mouse conjugate (anti-mouse IgG goat IgG, Sigma A-3562) diluted 1:30,000 in TBS-Tween 20 plus 5% of skim milk powder. To calf serum-containing discs, it was added alkaline phosphate-coupled anti-bovine conjugate (anti-cattle IgG rabbit IgG, Sigma A-0705) diluted 1:30,000 in TBS-Tween 20, plus 5% skim milk powder. After one hour incubation with the appropriate conjugates, washes were followed as in the previous step.

Sequence | Peptide Reactivity, Mice serum inoculated with pool
SKVASVEYILAARGGGGQVDRLANALGK (Synthetic hybrid peptide) [P28] | —
SKVASVEYILAARGGGGQVDRLANALGKGGGGAMGDSVHWKVKPVDNKLFIMP (Synthetic hybrid peptide) [P53] | X
SSVSSQSDQASTSSQLGGGGAMGDSVHWKVKPVDNKLFIMP (Synthetic hybrid peptide) [P41] | —

same assay, conditions: Dot-ELISA; peptide as antigen; serum of mouse 1 inoculated with the same isolated peptide; serum 1:25

Sequence | Peptide Reactivity, Mice serum inoculated with isolated peptides 1
SKVASVEYILAARGGGGQVDRLANALGK (Synthetic hybrid peptide) [P28] | —
SKVASVEYILAARGGGGQVDRLANALGKGGGGAMGDSVHWKVKPVDNKLFIMP (Synthetic hybrid peptide) [P53] | —
SSVSSQSDQASTSSQLGGGGAMGDSVHWKVKPVDNKLFIMP (Synthetic hybrid peptide) [P41] | —

same assay, conditions: Dot-ELISA; peptide as antigen; serum of mouse 2 inoculated with the same isolated peptide; serum 1:25

Sequence | Peptide Reactivity, Mice serum inoculated with isolated peptides 2
SKVASVEYILAARGGGGQVDRLANALGK (Synthetic hybrid peptide) [P28] | —
SKVASVEYILAARGGGGQVDRLANALGKGGGGAMGDSVHWKVKPVDNKLFIMP (Synthetic hybrid peptide) [P53] | —
SSVSSQSDQASTSSQLGGGGAMGDSVHWKVKPVDNKLFIMP (Synthetic hybrid peptide) [P41] | —

same assay, conditions: Dot-ELISA; peptide as antigen; serum of mouse 3 inoculated with the same isolated peptide; serum 1:25

Sequence | Peptide Reactivity, Mice serum inoculated with isolated peptides 3
SKVASVEYILAARGGGGQVDRLANALGK (Synthetic hybrid peptide) [P28] | —
SKVASVEYILAARGGGGQVDRLANALGKGGGGAMGDSVHWKVKPVDNKLFIMP (Synthetic hybrid peptide) [P53] | —
SSVSSQSDQASTSSQLGGGGAMGDSVHWKVKPVDNKLFIMP (Synthetic hybrid peptide) [P41] | —

same assay, conditions: Dot-ELISA; peptide as antigen; serum of saline-inoculated mice

Sequence | Peptide Reactivity, Mice serum inoculated with Saline (Negative Control)
SKVASVEYILAARGGGGQVDRLANALGK (Synthetic hybrid peptide) [P28] | —
SKVASVEYILAARGGGGQVDRLANALGKGGGGAMGDSVHWKVKPVDNKLFIMP (Synthetic hybrid peptide) [P53] | —
SSVSSQSDQASTSSQLGGGGAMGDSVHWKVKPVDNKLFIMP (Synthetic hybrid peptide) [P41] | —

same assay, conditions: Dot-ELISA; pool of peptides as antigen; serum of mouse 1 inoculated with the labelled peptide

Sequence | Reaction with pool of peptides, Mouse 1 serum
SKVASVEYILAARGGGGQVDRLANALGK (Synthetic hybrid peptide) [P28] | —
SKVASVEYILAARGGGGQVDRLANALGKGGGGAMGDSVHWKVKPVDNKLFIMP (Synthetic hybrid peptide) [P53] | X
SSVSSQSDQASTSSQLGGGGAMGDSVHWKVKPVDNKLFIMP (Synthetic hybrid peptide) [P41] | —

same assay, conditions: Dot-ELISA; pool of peptides as antigen; serum of mouse 2 inoculated with the labelled peptide

Sequence | Reaction with pool of peptides, Mouse 2 serum
SKVASVEYILAARGGGGQVDRLANALGK (Synthetic hybrid peptide) [P28] | X
SKVASVEYILAARGGGGQVDRLANALGKGGGGAMGDSVHWKVKPVDNKLFIMP (Synthetic hybrid peptide) [P53] | X
SSVSSQSDQASTSSQLGGGGAMGDSVHWKVKPVDNKLFIMP (Synthetic hybrid peptide) [P41] | —

same assay, conditions: Dot-ELISA; pool of peptides as antigen; serum of mouse 3 inoculated with the labelled peptide

Sequence | Reaction with pool of peptides, Mouse 3 serum
SKVASVEYILAARGGGGQVDRLANALGK (Synthetic hybrid peptide) [P28] | —
SKVASVEYILAARGGGGQVDRLANALGKGGGGAMGDSVHWKVKPVDNKLFIMP (Synthetic hybrid peptide) [P53] | X
SSVSSQSDQASTSSQLGGGGAMGDSVHWKVKPVDNKLFIMP (Synthetic hybrid peptide) [P41] | —

same assay, conditions: peptide as antigen; pool of all 8 hybrid peptides

Sequence | Dot-ELISA reaction of mouse sera inoculated with the peptide pool
SKVASVEYILAARGGGGQVDRLANALGK (Synthetic hybrid peptide) [P28] | reacted
SKVASVEYILAARGGGGQVDRLANALGKGGGGAMGDSVHWKVKPVDNKLFIMP (Synthetic hybrid peptide) [P53] | reacted

system: calf serum; assay: Dot-ELISA, synthetic peptides with serum of calf immunized with peptide pool; format: in vivo; set-up: key to Peptide Reactivity, Calf serum inoculated with pool: — = Did not react; X = Reacted; conditions: Dot-ELISA; peptide as antigen; calf inoculated with pool SEQ ID NO: 20, 21, 23, 25, 26
From the text: (§3) The immunogenicity of the synthetic peptides was verified by immunizing a previously tested calf with negative results for Anaplasma marginale, Babesia bovis and Babesia bigemina by serology and PCR. For inoculations, a peptide pool (SEQ ID NO: 20, SEQ ID NO: 21, SEQ ID NO: 23, SEQ ID NO: 25 and SEQ ID NO: 26) was emulsified in Freund's complete adjuvant (Sigma) and, inoculated intramuscularly in the quadriceps. Two further immunizations, on the 14th and 28th day after inoculation, were performed using incomplete Freund's adjuvant (Sigma). Each inoculation was done using 100 μg/mL of each peptide. Blood samples were collected by jugular puncture on the 10th day after the last immunization and the sera obtained were stored at −20° C. until evaluated by Dot-ELISA and Western-blotting assays.
as §2

Sequence | Peptide Reactivity, Calf serum inoculated with pool
SKVASVEYILAARGGGGQVDRLANALGK (Synthetic hybrid peptide) [P28] | —
SKVASVEYILAARGGGGQVDRLANALGKGGGGAMGDSVHWKVKPVDNKLFIMP (Synthetic hybrid peptide) [P53] | X
SSVSSQSDQASTSSQLGGGGAMGDSVHWKVKPVDNKLFIMP (Synthetic hybrid peptide) [P41] | X

same assay, conditions: label = antigen on disc

Sequence | Dot-ELISA reaction of calf serum inoculated with the peptide pool with the antigen
SKVASVEYILAARGGGGQVDRLANALGKGGGGAMGDSVHWKVKPVDNKLFIMP (Synthetic hybrid peptide) [P53] | reacted
SSVSSQSDQASTSSQLGGGGAMGDSVHWKVKPVDNKLFIMP (Synthetic hybrid peptide) [P41] | reacted

system: mouse serum; assay: Western blotting, synthetic peptides with serum of inoculated mice; conditions: in vivo
Method: as §1
(§4) Samples of synthetic peptides were analyzed by Western blotting. To this end, initially, the samples were submitted to polyacrylamide gel electrophoresis under denaturing conditions, according to the technique recommended by Laemmli (1970). Based on the sample volume 2× concentrated sample buffer (250 mM Tris-HCl pH 6.8, 40% glycerol, 8% SDS, 20% β-mercaptoethanol and 0.008% bromophenol blue) was added. The samples were homogenized, incubated for 5 minutes at 100° C. and applied to the gel. The separation gel was prepared at a concentration of 12% polyacrylamide in buffer (1.875 M Tris, pH 8.8 and 1% SDS) and 5% polyacrylamide for buffer packaging gel (1.875 M Tris, pH 6.8 and 0.5% SDS). Electrophoresis was performed in Tris-Glycine Running Buffer (50 mM Tris, pH 8.6, 1.92 M Glycine and 1% SDS) at 100 V for up to 3 hours and 30 minutes at 0° C. in the Mini-Protean II system (Bio-Rad).
Synthetic peptides processed on the polyacrylamide gel (SDS-PAGE) were transferred to the nitrocellulose membrane for analysis by Wester blot (TOWBIN et al., 1979). The nitrocellulose membrane (Merck) was previously incubated in ice cold transfer buffer (0.58% Tris Base pH 8.3, 20% methanol and 0.29% glycine). For this, the membrane was placed in the “Mini Trans-Blot” (Bio-Rad) electrotransfer system containing the same buffer and the transfer was performed at 100 V for 90 minutes. The membrane was incubated in TBS-Tween (10 mM Tris-HCl pH 7.5; 150 mM NaCl, 0.05% Tween-20) plus 5% skim milk powder for 12 hours at 4° C. under low agitation, for saturation of non-specific binding sites. The membrane was then incubated with each serum from each mouse alone or incubated with calf serum for 2 hours at room temperature under slow stirring. […]

Sequence | Western blotting reaction of serum of mice inoculated with synthetic peptide
SKVASVEYILAARGGGGQVDRLANALGKGGGGAMGDSVHWKVKPVDNKLFIMP (Synthetic hybrid peptide) [P53] | reacted

system: bovine serum serologically positive / negative / vaccinated for A. marginale; assay: Dot-ELISA, synthetic peptides with sera of cattle serologically positive, negative or vaccinated for A. marginale; format: binding; conditions: peptide as antigen
Method: as §2

Sequence | Reaction of sera from serologically positive cattle for A. marginale with synthetic peptide | Reaction of sera from vaccinated cattle for A. marginale with synthetic peptide
SKVASVEYILAARGGGGQVDRLANALGK (Synthetic hybrid peptide) [P28] | reacted | reacted
SKVASVEYILAARGGGGQVDRLANALGKGGGGAMGDSVHWKVKPVDNKLFIMP (Synthetic hybrid peptide) [P53] | reacted | 

system: calf serum; assay: Western blotting, synthetic peptides with calf serum; format: in vivo; conditions: label = antigen on blot
From the text: as §3, §4
Synthetic peptides processed on the polyacrylamide gel (SDS-PAGE) were transferred to the nitrocellulose membrane for analysis by Wester blot (TOWBIN et al., 1979). The nitrocellulose membrane (Merck) was previously incubated in ice cold transfer buffer (0.58% Tris Base pH 8.3, 20% methanol and 0.29% glycine). For this, the membrane was placed in the “Mini Trans-Blot” (Bio-Rad) electrotransfer system containing the same buffer and the transfer was performed at 100 V for 90 minutes. The membrane was incubated in TBS-Tween (10 mM Tris-HCl pH 7.5; 150 mM NaCl, 0.05% Tween-20) plus 5% skim milk powder for 12 hours at 4° C. under low agitation, for saturation of non-specific binding sites. The membrane was then incubated with each serum from each mouse alone or incubated with calf serum for 2 hours at room temperature under slow stirring. It was then subjected to three consecutive 10-minute washes with the same solution under slow agitation. […]

Sequence | Western blotting reactivity of calf serum inoculated with the peptide pool
SKVASVEYILAARGGGGQVDRLANALGKGGGGAMGDSVHWKVKPVDNKLFIMP (Synthetic hybrid peptide) [P53] | showed reactivity
SSVSSQSDQASTSSQLGGGGAMGDSVHWKVKPVDNKLFIMP (Synthetic hybrid peptide) [P41] | showed reactivity
